We go through eight compounds from US20100183600A1, “RAF Inhibitors and Their Uses” (ARQULE, INC., priority 2008, published 2010).

Counter-ions that a name gives are not always drawn.

Data set [1] deals with RKO. Briefly: Cell growth inhibition assay (MTS). The conditions noted are these: Homo sapiens, 72 hours. It counts as cell-based. On the procedure: (§1) Compounds of the present invention have been tested for activity against a variety of cancer cell lines. The ability of compounds to inhibit cell growth in this assay is correlated with the reduction of dehydrogenase enzyme activity found in metabolically active cells.
(§2) Materials: A large variety of cancer cells from ATCC were maintained at 37° C., 5% CO2 in DMEM media supplemented with 10% fetal bovine serum, penicillin/streptomycin and fungizone (Invitrogen). NCM460 (Incell), a normal colon epithelial cell line, and human mammary epithelial cells (Cambrex) were maintained at 37° C., 5% CO2 in DMEM and HEBM media (Cambrex), respectively.
(§3) Methods: Test compounds were dissolved and diluted to 300× in DMSO then diluted 1:40 in DMEM. Cells were seeded into 96-well tissue culture plates at 1-5×10^3 per well and cultured at 37° C. for 24 h. Cells were incubated with test compounds for 72 hours followed by incubation with tetrazolium compound (3-(4,5-dimethylthiazol-2-yl)-5-(3-carboxymethoxyphenyl)-2-(4-sulfophenyl)-2H-tetrazolium, inner salt; MTS) and the electron coupling reagent, phenazine methosulfate (PMS) for 4 hr. […] The measurement of the absorbance of the formazan was assessed using an ENVISION™ (Perkin Elmer) microplate reader at 492 nm. The calculated IC50 value is the concentration of the test compound that causes a 50% decrease in the absorbance.

Data set [2] deals with SK-MEL-2. Briefly: Cell growth inhibition assay (MTS). It counts as cell-based. Conditions: Homo sapiens; SK-MEL-2, 72 hours. On the procedure: as §1, §2, §3
Data set [3] deals with DLD-1. Briefly: Cell growth inhibition assay (MTS). The data set is classed as cell-based. Conditions: Homo sapiens; DLD-1, 72 hours. On the procedure: as §1, §2, §3
For data set [4], the system named is SK-MEL-28. Description: Cell growth inhibition assay (MTS). It counts as cell-based. Conditions: Homo sapiens; SK-MEL-28, 72 hours. On the procedure:
as §1, §2, §3

Data set [5] relates to A375. Briefly: Cell growth inhibition assay (MTS). The conditions noted are these: Homo sapiens, A-375, 72 h, A375, 72 hours. It counts as cell-based. On the procedure: as §1, §2, §3
In data set [6] the test system is WM-266-4. Briefly: Cell growth inhibition assay (MTS). The data set is classed as cell-based. The conditions noted are these: Homo sapiens; WM-266-4, 72 hours. On the procedure:
as §1, §2, §3

Data set [7] addresses T1, mutant B-RAF (Homo sapiens, UniProt P15056, V600E).
T1 construct: purchased Upstate (Charlottesville, Va.)
Description: Measurement of RAF activity (MEK-1 phosphorylation). The data set is classed as biochemical. The conditions noted are these: 50 μM ATP, MEK-1 substrate; read-out: Mut-B-Raf IC50. On the procedure:
Materials: The RAF kinases and the anti-phospho MEK1/2 antibody were from Upstate (Charlottesville, Va.). The RAF substrate used was full length N-terminal GST-MEK-1, which was expressed in E. coli and purified in-house by HPLC. All proteins were aliquoted and stored at −80° C. Superblock™ in phosphate buffered saline (PBS) blocking reagent was form Pierce (cat. #37515). ATP was from Roche (cat. # 19035722). Alkaline Phosphatase-tagged goat anti-rabbit antibody was from Pierce (cat. # 31340).
Methods: All RAF biochemical assays were performed using an assay buffer containing 20 mM MOPS, 5 mM EGTA, 37.5 mM MgCl2, 1 mM DTT and 50 μM ATP. There was 6.25 ng/well mutant B-RAF and 7.5 ng/well MEK-1 in the final assay conditions. Compounds were serially diluted in assay buffer containing 1% DMSO and 20 μl of test compound at a concentration 3-fold more than the final concentration, and were added to a polypropylene V-well reaction plate. Vehicle control wells received buffer only with DMSO at equivalent concentrations to the test wells. […] These reaction plates were incubated at room temperature for 30 minutes. Capture of MEK-1 was initiated by transferring 50 μl of the reaction mixture to a Nunc Maxisorp™ microplate that is designed for non-specific protein capture. After 30 minute capture of MEK-1 at room temperature, this plate was washed with TBST (6×200 μL/well) to fully terminate the reaction. The plate was then blocked for 1 hour by the addition of 100 μl/well of Superblock™ in phosphate buffered saline (PBS) blocking reagent. Plate was again washed with TBST (6 times with 200 μl/well), followed by the addition of 70 μl/well of Upstate anti-phospho MEK ½ diluted 1:1000 in Pierce Superblock (PBS). After a 60 minute incubation, this plate was washed with TBST (6 times with 200 μl/well), and 70 μl of the secondary antibody (Pierce Alkaline Phosphatase tagged goat anti-rabbit) prepared at 1:4000 in Superblock, were added. After a 45 minute incubation at room temperature, the wells of the microplate were washed with TBST (6 times with 200 μl/well), and thereafter 100 μl/well of Attophos™ fluorescent alkaline phosphatase substrate was added according to the manufacturer's instructions (JBL Scientific). Fluorescence was read on a Perkin Elmer Envision multilabel reader, using the following filters: Excitation Filter: CFP430 nM, Emission Filter: Emission Filter 579 nM.

Data set [8] deals with p-Erk (A375). Description: Cell-based phosphorylation assay with electroblotting readout. Set-up: species or system human. The conditions noted are these: Homo sapiens, A-375; A375 cells, 1 hr. An excerpt: Compounds of the present invention have been screened for their ability to inhibit all isoforms, both wild-type and mutant of RAF kinases (A-RAF, B-RAF and C-RAF) in general, and the mutant B-RAF (V600E) in particular in human cancer cells. A375 is a human melanoma cell line that harbors the most common B-RAF mutation-V600E found in human cancers. The ability of compounds to inhibit RAF kinases in this assay is correlated with the reduction of MEK and ERK phosphorylation, and is therefore a direct indicator of potential in vivo therapeutic activity.
Materials: A375 cells from ATCC were maintained at 37° C., 5% CO2 in DMEM media supplemented with 10% fetal bovine serum, penicillin/streptomycin and fungizone. (Invitrogen)
Methods: Test compounds were dissolved and diluted 1:1000 in DMSO. A375 cells were seeded in six-well tissue culture plates at 5-8×10^5 per well and cultured at 37° C. for 24 h. Cells were incubated with compounds for one hour before being lysed in EPage™ loading buffer (Invitrogen). Lysates were electrophoresed on 8% EPage™ gels and transferred to polyvinylidene difluoride membranes. After incubations with primary and secondary antibodies, the immunostained proteins were detected and quantitated by an Odyssey infrared imager (LI-COR). Analysis was performed by non-linear regression to generate a dose response curve. The calculated IC50 value was the concentration of the test compound that causes a 50% decrease in phospho-MEK and phospho-ERK levels. The primary antibodies used were anti-MEK (Stressgen), anti-ERK (BD Biosciences), anti-phospho-ERK and anti-phospho-MEK (Cell Signaling). The secondary antibodies used were IRDYE800 anti-rabbit, IRDYE 800 anti-mouse (Rockland), AlexaFluor680 anti-mouse and AlexaFluoro680 anti-rabbit (Invitrogen).
A375 cells were treated with 0, 12, 37, 111, 333 and 1000 nM of indicated compounds for 1 hr. The levels of Phospho-ERK and total-ERK were accessed by immunoblotting.

T1 sequence (P15056 whole entry V600E): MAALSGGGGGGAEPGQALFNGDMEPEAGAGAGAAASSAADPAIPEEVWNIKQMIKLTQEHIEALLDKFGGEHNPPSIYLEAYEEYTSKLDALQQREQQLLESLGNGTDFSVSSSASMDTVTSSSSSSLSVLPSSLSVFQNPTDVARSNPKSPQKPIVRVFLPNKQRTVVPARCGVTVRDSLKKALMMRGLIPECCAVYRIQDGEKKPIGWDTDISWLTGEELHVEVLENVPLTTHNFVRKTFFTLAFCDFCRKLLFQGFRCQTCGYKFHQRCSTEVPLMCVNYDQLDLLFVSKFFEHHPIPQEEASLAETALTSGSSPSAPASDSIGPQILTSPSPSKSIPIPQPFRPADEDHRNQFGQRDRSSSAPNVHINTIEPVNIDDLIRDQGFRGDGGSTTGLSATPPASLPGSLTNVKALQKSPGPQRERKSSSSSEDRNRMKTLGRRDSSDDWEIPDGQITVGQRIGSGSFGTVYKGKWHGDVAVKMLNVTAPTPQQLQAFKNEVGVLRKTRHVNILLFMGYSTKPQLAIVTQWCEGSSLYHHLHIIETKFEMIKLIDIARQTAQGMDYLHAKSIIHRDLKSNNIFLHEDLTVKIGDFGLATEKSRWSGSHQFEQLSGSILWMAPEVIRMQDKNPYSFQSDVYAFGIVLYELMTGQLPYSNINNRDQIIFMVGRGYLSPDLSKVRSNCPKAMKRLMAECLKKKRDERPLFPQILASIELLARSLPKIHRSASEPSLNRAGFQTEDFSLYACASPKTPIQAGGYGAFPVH

One may read the GI50 as the concentration giving 50% growth inhibition. Low readings indicate more potent growth inhibition, high ones less potent growth inhibition. In general, IC50 refers to the point on the concentration scale where inhibition reaches its midpoint. A word on the EC50: it is the concentration that produces a half-maximal response. A lower EC50 goes with greater potency. As to `Cn1ccc(S(=O)(=O)N2CCC[C@@H](Nc3nccc(-c4c(-c5cccc(O)c5)nc5sccn45)n3)C2)n1` [Compound 14, (R)-3-(5-(2-(1-(1-methyl-1H-pyrazol-3-ylsulfonyl)piperidin-3-ylamino)pyrimidin-4-yl)imidazo[2,1-b]thiazol-6-yl)phenol], the GI50 came to 122 nM in [1]; 170 nM in data set [2]; 3000 nM in [3]; 74 nM in [4]; 2 nM in data set [5]; 5 nM in data set [6]. In data set [7], the half-inhibitory concentration (IC50) stood at 6 nM. For the same compound, a half-maximal response in data set [8] (EC50) required 2 nM.

In the case of `O=S(=O)(C1CC1)N1CCC(Nc2nccc(-c3c(-c4cccc(O)c4)nc4occn34)n2)CC1` [Compound 11, 3-(5-(2-(1-(cyclopropylsulfonyl)piperidin-4-ylamino)pyrimidin-4-yl)imidazo[2,1-b]oxazol-6-yl)phenol], the GI50 was 323 nM in data set [1]; 2040 nM in [2]; 13900 nM in data set [3]; 555 nM in data set [4]; < 0.4 nM in data set [5]; 3 nM in data set [6]. The IC50 in data set [7] worked out at 48 nM. For the same compound, the EC50 in data set [8] is 53 nM.

Turning to `O=S(=O)(c1ccc(Cl)cc1)N1CCC[C@@H](Nc2nccc(-c3c(-c4cccc(O)c4)nc4occn34)n2)C1` [Compound 4, (R)-3-(5-(2-(1-(4-chlorophenylsulfonyl)piperidin-3-ylamino)pyrimidin-4-yl)imidazo[2,1-b]oxazol-6-yl)phenol], the GI50 in [1] stood at 1810 nM; in data set [2], 1800 nM; in data set [3], 15400 nM; in data set [4] it was 1120 nM; in data set [5], 0.54 nM; in data set [6], 15 nM. For the same compound, the half-maximal inhibitory concentration (IC50) in data set [7] amounted to 10 nM. The compound also gave an EC50 in data set [8] of 35 nM.

Regarding `O=S(=O)(c1ccc(Cl)cc1)N1CCC(Nc2nccc(-c3c(-c4cccc(O)c4)nc4sccn34)n2)CC1` [Compound 7, 3-(5-(2-(1-(4-chlorophenylsulfonyl)piperidin-4-ylamino)pyrimidin-4-yl)imidazo[2,1-b]thiazol-6-yl)phenol], the GI50 was 85 nM in [1]; 519 nM in data set [2]; 5520 nM in data set [3]; 88 nM in [4]; < 0.4 nM in data set [5]; 6 nM in data set [6]. Besides, the IC50 in data set [7] stood at 8 nM. In data set [8], this compound showed an EC50 of 82 nM.

Consider `Cn1ccc(S(=O)(=O)N2CCC(Nc3nccc(-c4c(-c5cccc(O)c5)nc5occn45)n3)CC2)n1` [Compound 20, 3-(5-(2-(1-(1-methyl-1H-pyrazol-3-ylsulfonyl)piperidin-4-ylamino)pyrimidin-4-yl)imidazo[2,1-b]oxazol-6-yl)phenol], for which the GI50 in data set [1] was 372 nM; in data set [2] it was 310 nM; in data set [3], 9470 nM; in [4], 393 nM; in [5] it was < 0.4 nM; in data set [6], 2 nM. Besides, in data set [7], the concentration for half-maximal inhibition (IC50) came to 13 nM. The compound also came in with a 50% effective concentration (EC50) in [8] of 73 nM.

Usually melting point stands for the temperature, or range, at which the solid turns liquid. `O=P(O)(O)Oc1cccc(-c2nc3sccn3c2-c2cccc(N[C@@H]3CCCN(S(=O)(=O)c4ccc(Cl)cc4)C3)c2)c1` (as salt: phosphate) displayed a melting point of 239 to 245 °C.

Take `Cn1ccc(S(=O)(=O)N2CCC[C@@H](Nc3nccc(-c4c(-c5ccc(F)c(O)c5)nc5occn45)n3)C2)n1` [Compound 22, (R)-2-fluoro-5-(5-(2-(1-(1-methyl-1H-pyrazol-3-ylsulfonyl)piperidin-3-ylamino)pyrimidin-4-yl)imidazo[2,1-b]oxazol-6-yl)phenol]: the GI50 was 52 nM in [1]; 42.8 nM in [2]; 5920 nM in data set [3]; 33 nM in data set [4]; < 0.4 nM in data set [5]; < 0.4 nM in data set [6]. The IC50 in data set [7] turned out to be 0.96 nM. Besides, it took 34 nM to reach a half-maximal effect in data set [8] (EC50).

For `O=S(=O)(c1ccc(F)cc1)N1CCC(Nc2nccc(-c3c(-c4cccc(O)c4)nc4occn34)n2)CC1` [Compound 9, 3-(5-(2-(1-(4-fluorophenylsulfonyl)piperidin-4-ylamino)pyrimidin-4-yl)imidazo[2,1-b]oxazol-6-yl)phenol], the GI50 in [1] is 283 nM; in [2], 356 nM; in data set [3], 1620 nM; in [4], 300 nM; in [5] it was < 0.4 nM; in data set [6], < 0.4 nM. Further, the IC50 in [7] worked out at 48 nM. In addition, the EC50 in data set [8] is 129 nM.
